Reference: patent publication US20140051729A1, “COMPOSITIONS AND METHODS FOR TREATING DEGENERATIVE MUSCLE CONDITIONS” (University of Washington, priority 2011, published 2014)

Legend:
[1] = test system: dystrophic flies (w; +/+; Dys^det1/Dys^det1); experiment: Myofibril analysis of muscle wasting in dystrophic flies fed S1P promoting agents; assay type: in vivo, Drosophila; settings: 217 μM in feed, three feeding cycles
Description: The effect of THI, a derivative of THI ((E)-1-(4-((1R,2S,3R)-1,2,3,4-tetrahydroxybutyl)-1H-imidazol-2-yl)-ethanone oxime) (“THI-oxime”), and a sphingosine analog (FTY720) on muscle wasting in dystrophic Drosopila flies was observed. Before feeding, 4 day old dystrophic flies (genotype: w; +/+; Dys^det1/Dys^det1) were placed in empty vials and starved for 6 hours. The flies were then provided access to one of a solution of 0.05 mg/mL (217 μM) 2-Acetyl-4(5)-tetrahydroxybutyl Imidazole (THI), or 217 μM FTY720, or 217 μM THI-oxime, in 5% light corn syrup in water for 16-18 hrs. After feeding, the flies were placed in new yeasted vials for 6-7 hrs. Flies were then transferred to empty vials with access to a 217 μM solution of THI, FTY720 or THI-oxime in a 5% light corn syrup in water for 16-18 hrs. This feeding cycle was repeated for a third time. After feeding for three cycles, the flies were placed in new yeasted vials. The 7-day old flies that had been administered the THI-oxime were analyzed immediately after the last feeding. The flies that has been administered THI and FTY720 were analyzed as 10-day old flies, three days after the last feeding with THI and FTY720.
Myofibril immunochemistry analysis was performed as disclosed herein. For each treatment group, 5 flies were analyzed, and 3 muscles per fly and 2 myofibrils per muscle were analyzed. Two tailed Student's t test was used to evaluate significance.
Flies were dipped in 95% EtOH and then dissected in 1×PBS (pH 7.4). Heads and abdomens were removed, and the thoraxes opened. Samples were stained using a modified ovary staining protocol 3. Samples were then fixed in 5% paraformaldehyde (Electron Microscopy Sciences) for 1 hour, rinsed in PBT (PBS/0.2% Triton X-100 v/v) 4 times, and then blocked for 1 hour in PBTB (PBT, 0.4% BSA w/v, 5% Normal Goat Serum v/v) at room temperature. […] For each genotype, 4-5 flies were analyzed, and 6-7 muscles per fly were analyzed.

A/J mice = experiment: S1P in dysferlinopathy model after CTX injury (picrosirius red fibrosis); assay type: in vivo, mouse; settings: A/J mice 9 month old, S1P intramuscular daily three days, 6 days post injury, vs vehicle
Description: The A/J mouse strain (JAX Mice, Bar Habor, Me.) lacks dysferlin and is a model for dysferlinopathy. The effects of S1P treatment of A/J mice was examined following CTX induced acute injury. CTX was applied to both TA muscles (2× male, 2× female, 9 month old), then S1P was injected intramuscularly into left TAs and a vehicle control (saline) in right TAs daily for the first three days following CTX injury. The TAs were harvested and examined for muscle fibrosis (picrosirius red staining) 6 days post injury.
Right and left TAs of three, 3 month old male mdx4cv:Myf5nlacZ/+ were injected with […] cardiotoxin (Calbiochem) in PBS from Naja nigrcollis. For the dysferlinopathy study, right and left TAs of 9 month old male and female A/J mice (JAX Mice, Bar Harbor, Me.) were injected with […] cardiotoxin (Calbiochem) in PBS from Naja nigrcollis. S1P (Enzo; Calbiochem) preparation was done according to manufacturer's instructions. Briefly, S1P was dissolved in methanol (0.5 mg/ml) and aliquoted, then the solvent was evaporated with a stream of nitrogen to deposit a thin film on the inside of the tube. […]
All mouse muscles were frozen directly in OCT with liquid nitrogen cooled in isopentane and sections of 8 μm thickness were obtained. […] Staining quantifications were all done using ImageJ v1.40 (Wayne Rasband, NIH) cell counter plugin (Kurt De Vos, University of Sheffield). […]

Akt/mTOR signaling = experiment: Western blot of uninjured TA muscle of mdx mice after intramuscular S1P; assay type: in vivo, mouse; settings: three days of daily S1P injections, vs vehicle TA
Description: To discern if the S1P dependent increase in mdx muscle fiber size was due to hypertrophy, the activation of Akt/mTOR signaling was examined. S1P induced hypertrophy has been described in cultured cardiomyocytes, which was accompanied by activation of Akt and S6 kinase. In turn, Akt and mTOR signaling via S6 kinase, an activator of ribosomal S6 implicated in protein synthesis, has been described as sufficient to induce skeletal muscle hypertrophy. Therefore it was determined if the increase in muscle fibers by S1P was mediated by Akt/mTOR signaling. Since THI induces a S1P increase throughout the body, S1P was administered directly into muscle in mdx mice and levels of activated/phosphorylated Akt, mTOR, and S6 were measured. S1P was injected directly into uninjured TA muscle to measure potential effects on these pathways in the absence of injury. As before, S1P was injected into left TAs and vehicle into right TAs of the same animals (FIG. 6a). […]
Tissue for western blot analysis was snap frozen in liquid nitrogen and subsequently homogenized. […] Protein extracts were separated using BioRad Tris-HCl ready gels 4-20% linear gradient and transferred to polyvinylidene difluoride (PVDF) membranes with a wet transfer system (BioRad). […] The signals were detected using an enhanced chemiluminescence kit (Millipore) and CL-XPosure Films (Thermo Scientific) were analyzed using ImageJ.

mdx:myf5^nlacz/+ mice = experiment: Intramuscular S1P after CTX injury in mdx:Myf5nlacZ/+ mice (x-gal, myogenin, eMyHC staining); assay type: in vivo, mouse
Description: S1P is involved in muscle satellite cell turnover, myoblast differentiation, and muscle regeneration in non-diseased mice. […] The effects of S1P treatment were examined following CTX induced acute injury in dystrophic muscles. To identify myogenic cells, mdx:myf5^nlacz/+ mice were used carrying the nuclear lacZ reporter driven by the endogenous Myf5 gene. CTX was applied to both TA muscles (n=3 mice, 3 month-old mdx:myf5^nlacz/+ males), then S1P was injected intramuscularly into left TAs and a vehicle control into right TAs daily for the first three days following injury. TAs were harvested on day 4 post injury for analysis of β-galactosidase positive (Myf5+) nuclei.
Right and left TAs of three, 3 month old male mdx4cv:Myf5nlacZ/+ were injected with […] cardiotoxin (Calbiochem) in PBS from Naja nigrcollis. For the dysferlinopathy study, right and left TAs of 9 month old male and female A/J mice (JAX Mice, Bar Harbor, Me.) were injected with […] cardiotoxin (Calbiochem) in PBS from Naja nigrcollis. S1P (Enzo; Calbiochem) preparation was done according to manufacturer's instructions. Briefly, S1P was dissolved in methanol (0.5 mg/ml) and aliquoted, then the solvent was evaporated with a stream of nitrogen to deposit a thin film on the inside of the tube. Aliquots were dissolved with 4 mg/ml BSA (fatty acid free) to make 500 uM stocks. Directly following cardiotoxin injection, 500 uM S1P in PBS with 4 mg/ml BSA was injected in left TAs (20 ul), daily until day 3 post-injury at which time animals were euthanized and muscles were harvested for freezing. Right TAs were injected with an equal volume of PBS with 4 mg/ml BSA as vehicle controls. In a separate experiment TAs of four 2.5 month-old female mdx4cv were injected with S1P or vehicle under the same conditions stated above, in the absence of injury.
All mouse muscles were frozen directly in OCT with liquid nitrogen cooled in isopentane and sections of 8 μm thickness were obtained. Tissue for x-gal staining, was fixed for 10 min with 2% formaldehyde/0.2% glutaraldehyde and incubated overnight at 37° C. with staining buffer (PBS with 1 mg/ml x-gal, 5 mM potassium ferricyanide, 5 mM potassium ferrocyanide, and 2 mM […] (all from Fisher). Oil Red-O and Picrosirius red staining were done following established protocols. For eMyHC staining, tissue was first fixed with 2% formaldehyde for 5 min, treated with streptavidin/avidin blocking kit (Vector labs), and blocked with IgG block from M.O.M kit (Vector Labs) for 5 hrs at 4° C. Following blockade, concentrated mouse anti-eMyHC (clone F1.652 received at 357 μg/ml IgG) obtained from the developmental studies hybridoma bank (DHSB, University of Iowa) was administered at 1:400 dilution, overnight at 4° C. The remainder of the staining was done following mouse-on-mouse (M.O.M) kit staining instructions. For laminin staining tissue was also fixed with 2% formaldehyde for 5 min, and then treated with polyclonal rabbit anti-laminin (Sigma) for 1 hr at a 1:400 dilution in PBS+1% BSA. Following washes, Alexa Fluor 488 conjugated goat anti-rabbit IgG (Invitrogen) was administered at 1:800 dilution for 1 hr. Controls omitting the primary antibody were included with all staining. Staining quantifications were all done using ImageJ v1.40 (Wayne Rasband, NIH) cell counter plugin (Kurt De Vos, University of Sheffield). Calculations, statistics, and graphs were generated with Microsoft Excel. […]

mdx mice = experiment: EDL muscle myography in mdx mice; assay type: in vivo, mouse; settings: THI-oxime IP twice-daily two weeks, 75 ug per day, at 120 Hz; vehicle 58 at 100 Hz
Description: The effect of THI administration on muscle function and recovery in mdx mice was analyzed. The mice were injected intraperitoneally with THI in PBS or vehicle alone (PBS) twice-daily for two weeks. Total amount of THI delivered per day was 75 ug. Extensor digitorum longus (EDL) muscles were excised from the mice and equilibrated in ringer's solution with 95% O2/5% CO2 for a minimum of 15 minutes prior to stimulation. Myography was conducted using a DMT 820S myograph and data was recorded using PowerLab 4/30 acquisition system with LabChart Pro software v7.3.1 (both from ADI instruments, Colorado Springs, Colo.). Stimulations were conducted with a Grass Instrument S88X system (Grass Technologies, West Warwick, R.I.). Muscles were stimulated to establish optimal fiber length (Lf) and voltage at which maximum tetanic force was measured at 120 Hz within a 450 ms duration.
Specific force was calculated as previously described in Gregorevic P. et al. (Gregorevic P. et al., Muscle Nerve. 2004 September; 30(3):295-304, PMID#15318340) by normalizing to whole muscle cross-sectional area (CSA). CSA is the quotient of […] muscle mass over the optimal muscle length (Lo) which is defined as the product of muscle fiber length (Lf) with the fiber length ratio (0.44 for EDL) and mammalian muscle density (1.06).
Muscle recovery was measured after muscle was fatigued with stimulation over 6 minutes. […] Recovery was determined by examining muscle force at 5, 10, and 15 minutes after stimulation. […] Therefore, the administration of THI improved muscle recovery and function in dystrophic mice.
The effect of THI-oxime administration on muscle function and recovery in mdx mice was analyzed. The mice were injected intraperitoneally with THI-oxime (n=3) or PBS vehicle alone (n=4) twice-daily for two weeks and then analyzed between 1-4 days following the final day of injection. Total amount of THI-oxime delivered per day was 75 ug. Prior to euthanasia, the animals were anesthetized with 0.5 mg/g weight avertin diluted in PBS. EDL muscles were excised from the mice and equilibrated in ringer's solution (120 mM NaCl, 4.7 mM KCl, 3.15 mM MgCl2, 1.3 mM NaH2PO4, 25 mM NaHCO3, 11 mM Glucose, 1.25 mM CaCl2, pH 7.2) with 95% O2/5% CO2 for a minimum of 15 minutes prior to stimulation. All functional experiments were carried out with buffer solutions at 25° C. under constant oxygenation. Myography was conducted using a DMT 820S myograph and data was recorded using PowerLab 4/30 acquisition system with LabChart Pro software v7.3.1 (both from ADI instruments, Colorado Springs, Colo.). […] Muscles were stimulated to establish optimal fiber length (Lf) and voltage at which maximum tetanic force was measured at 120 Hz within a 450 ms duration. […]

CCCCCCCCc1ccc(CCC(N)(CO)CO)cc1 [FTY720, 2-amino-2-[2-(4-octylphenyl)ethyl]propane-1,3-diol]
wild-type myofibrils ([1]; 10-day old flies, three days after last feeding): 73.83%

CCCCCCCCCCCCC/C=C/[C@@H](O)[C@@H](N)COP(=O)(O)O [S1P, Sphingosine-1-phosphate]
average percentage of fibrosis in CTX injured TA muscles (A/J mice): significantly decreased | levels of S6 and phosphorylated S6 (Akt/mTOR signaling): significantly increased | levels of phosphorylated Akt and mTOR (Akt/mTOR signaling): not significantly higher | numbers of Myf5+ nuclei in areas with severe CTX damage (mdx:myf5^nlacz/+ mice; S1P intramuscular daily for three days, TAs harvested day 4, vs vehicle TA): four-fold increase | Myf5+ cells for the entire cross-sectional area of treated TA (mdx:myf5^nlacz/+ mice; S1P intramuscular daily for three days, day 4, vs vehicle TA): gross increase | increase in the number of eMyHC+ fibers (mdx:myf5^nlacz/+ mice; S1P treated TAs vs vehicle): 3.6 fold | size of regenerating myofibers (minimum diameter of largest eMyHC+ fibers) (mdx:myf5^nlacz/+ mice; S1P treated TAs vs vehicle): significantly greater | number of myogenin positive nuclei (mdx:myf5^nlacz/+ mice; S1P treated vs vehicle treated CTX injured TAs): slightly higher but not significantly different

C/C(=N\O)c1nc([C@@H](O)[C@H](O)[C@H](O)CO)c[nH]1 [THI-oxime, (E)-1-(4-((1R,2S,3R)-1,2,3,4-tetrahydroxybutyl)-1H-imidazol-2-yl)-ethanone oxime]
wild-type myofibrils ([1]; 7-day old flies, negative control 39.05%): 67.62% | maximum specific force of EDL muscle (mdx mice): 73 KN/m^2
